Laboratory results: BindingDB's records for doi:10.1016/S0960-894X(00)80270-X (1991)

Experiment: Compound was tested for inhibitory activity against fucosyltransferase

IC50: 40 mM
SMILES: OC[C@@H]1NC[C@@H](O)[C@@H](O)[C@@H]1O[C@@H]1O[C@@H](CO)[C@H](O)[C@H](O)[C@@H]1O
